Assays:
SARS-CoV-2 M^pro [1] = target: T1, SARS-CoV-2 M^pro (Severe acute respiratory syndrome coronavirus 2, UniProt P0DTD1); conditions: ref Zhu and Xie, 2020; cited from earlier work
SARS-CoV-2 M^pro [2] = target: T1, SARS-CoV-2 M^pro; test: Inhibition assay of the SARS-CoV-2 M^pro activity; assay type: biochemical
HCoV-229E = test: microbe, parasite or virus in culture; assay type: cell-based, Human coronavirus 229E
[3] = after the intake of 150 mg in 1 h; ref de Whalley et al., 1990; Olthof et al., 2000; cited from earlier work

Oc1cc(O)c2c(c1)O[C@H](c1ccc(O)c(O)c1)[C@H](O)C2 [(−)-epicatechin]
Inhibition of the SARS-CoV-2 M^pro activity (SARS-CoV-2 M^pro [1]): could not
Inhibitive effect on the M^pro activity at 100 μM (SARS-CoV-2 M^pro [2]): did not inhibit
Inhibitory effect on the M^pro activity (SARS-CoV-2 M^pro [2]; range of concentrations from 0 to 200 μM): did not show an inhibitory effect
Concentration at which inhibition of HCoV-229E replication starts (HCoV-229E): 20 µM

O=C(O[C@@H]1Cc2c(O)cc(O)cc2O[C@@H]1c1cc(O)c(O)c(O)c1)c1cc(O)c(O)c(O)c1 [EGCG, epigallocatechin gallate, reference compound]
Inhibition of the SARS-CoV-2 M^pro activity (SARS-CoV-2 M^pro [1]): effectively inhibited
Concentration at which inhibition of HCoV-229E replication starts (HCoV-229E): 2.5 µM

O=c1c(O[C@@H]2O[C@H](CO)[C@@H](O)[C@H](O)[C@H]2O)c(-c2ccc(O)c(O)c2)oc2cc(O)cc(O)c12 [Isoquercitrin, quercetin-3-O-glycoside]
Concentration at which inhibition of HCoV-229E replication starts (HCoV-229E): 2.5 µM

O=c1c(O)c(-c2ccc(O)c(O)c2)oc2cc(O)cc(O)c12 [Quercetin, quercetin]
Quercetin concentration in plasma [3]: 5.0 ± 1.0 µM
Concentration at which inhibition of HCoV-229E replication starts (HCoV-229E): 5.0 µM
Effect on HCoV-229E replication at 2.5 μM (HCoV-229E; Huh-7 cells, 2.5 μM): slightly reduce
Inhibition of HCoV-229E replication at concentration higher than 10 μM (HCoV-229E; Huh-7 cells, higher than 10 μM): strongly inhibit
EC50 (HCoV-229E; Human coronavirus 229E, Huh-7, 24 h, read-out: EC50, inhibition of HCoV-229E replication): 4.88 µM

C[C@@H]1O[C@@H](OC[C@H]2O[C@@H](Oc3c(-c4ccc(O)c(O)c4)oc4cc(O)cc(O)c4c3=O)[C@H](O)[C@@H](O)[C@@H]2O)[C@H](O)[C@H](O)[C@H]1O [Rutin, rutin]
Inhibitive effect on the M^pro activity at 100 μM (SARS-CoV-2 M^pro [2]): most effectiveness

— article PMC9002334 (Virology, 2022)
